Results as given in patent US4758555A, “Method for treating convulsions and epilepsy with organic copper compounds” (priority 1986, dated 1988).

Key:
[1] = Maximal Electroshock Seizure Test; type: in vivo, male Carworth Farms #1 mice or Sprague-Dawley rats; conditions: for ED50: Mus musculus, read-out: ED50 for inhibition of seizures, MES (Phase II)
[2] = Subcutaneous Pentylenetetrazol (Metrazol) Seizure Threshold Test; type: in vivo, male Carworth Farms #1 mice or Sprague-Dawley rats; conditions: for Lowest effective dose, Metrazol (Phase I): Table X; for Protection against Metrazol-induced seizures (in words): running text; for Anticonvulsant activity, Metrazol (Phase I): Table IV
[3] = Table X, IP, challenge time 30 min
[4] = Table X, IP, challenge time 4 hrs
[5] = Table X, SC, challenge time 30 min
[6] = Table X, SC, challenge time 4 hrs

Compound | Lowest effective dose, MES (Phase I) [1, 3] | Lowest effective dose, MES (Phase I) [1, 4] | Lowest effective dose, MES (Phase I) [1, 5] | Lowest effective dose, MES (Phase I) [1, 6] | Lowest effective dose, Metrazol (Phase I) ([2]; IP, challenge time 30 min) | Lowest effective dose, Metrazol (Phase I) ([2]; IP, challenge time 4 hrs) | Lowest effective dose, Metrazol (Phase I) ([2]; SC, challenge time 30 min) | Lowest effective dose, Metrazol (Phase I) ([2]; SC, challenge time 4 hrs) | also measured
O=C1CN=C(c2ccccc2Cl)c2cc([N+](=O)[O-])ccc2N1 [Clonazepam, reference compound] | – | – | – | – | – | – | – | – | ED50 ([1]; ip): 19 mg/kg; ED50 ([2]; Mus musculus, ip, read-out: ED50 for inhibition of seizures, Metrazol (Phase II)): 0.2 mg/kg
CCC1(c2ccccc2)C(=O)[N-]C(=O)NC1=O.CCC1(c2ccccc2)C(=O)[N-]C(=O)NC1=O.[Cu+2].c1c[nH]cn1.c1c[nH]cn1 [Cu(II)(Phenobarbital)2 (imidazole)2] | 100 milligrams per kilogram of bod | 100 milligrams per kilogram of bod | I | 100 milligrams per kilogram of bod | 300 milligrams per kilogram of bod | 30 milligrams per kilogram of bod | 100 milligrams per kilogram of bod | 100 milligrams per kilogram of bod | –
CC(C)[C@H](N)C(=O)[O-].CC(C)[C@H](N)C(=O)[O-].O.[Cu+2] [Cu(II)(L-valinate)2 H2 O] | – | – | – | – | – | – | – | – | Protection against Metrazol-induced seizures (in words) [2]: effective against the Metrazol-induced seizure at all doses studied and at both time intervals, 30 minutes and 4 hours
Cu(II)5-ethyl-5-phenylhydantoin(CH3 OH) | 100 milligrams per kilogram of bod | 100 milligrams per kilogram of bod | 100 milligrams per kilogram of bod | 30 milligrams per kilogram of bod | 100 milligrams per kilogram of bod | I | 100 milligrams per kilogram of bod | 300 milligrams per kilogram of bod | –
C[C@@H](O)[C@H](N)C(=O)[O-].C[C@@H](O)[C@H](N)C(=O)[O-].O.[Cu+2] [Cu(II)(L-threoninate)2 H2 O] | – | – | – | – | – | – | – | – | Protection against Metrazol-induced seizures (in words) [2]: effective against the Metrazol-induced seizure at all doses studied and at both time intervals, 30 minutes and 4 hours
Cu(II)(L-cystinate)2 H2 O | – | – | – | – | – | – | – | – | Protection against Metrazol-induced seizures (in words) [2]: effective against the Metrazol-inducedseizure at all three doses studied but only at the shorter time period
CCC1(CCC(C)C)C(=O)[N-]C(=O)NC1=O.CCC1(CCC(C)C)C(=O)[N-]C(=O)NC1=O.O.O.[Cu+2] [Cu(II)(Amobarbital)2 (H2 O)2] | 100 milligrams per kilogram of bod | I | 300 milligrams per kilogram of bod | I | 100 milligrams per kilogram of bod | I | 100 milligrams per kilogram of bod | I | –
C[C@H](N)C(=O)[O-].C[C@H](N)C(=O)[O-].[Cu+2] [Cu(II)(L-alaninate)2] | – | – | – | – | – | – | – | – | Protection against Metrazol-induced seizures (in words) [2]: effective against the Metrazol-induced seizure at all doses studied and at both time intervals, 30 minutes and 4 hours
Cu(II)n (Phenobarbital)n (H2 O)2n (H2 O)3n | – | – | 100 milligrams per kilogram of bod | 30 milligrams per kilogram of bod | – | – | 30 milligrams per kilogram of bod | 30 milligrams per kilogram of bod | –
NC(=O)N1c2ccccc2C=Cc2ccccc21 [Carbamazepine, reference compound] | – | – | – | – | – | – | – | – | ED50 ([1]; Table X, IP, at time of peak activity): 9 mg/kg
CCCC(C)C1(CC)C(=O)N=C([S-])NC1=O.CCCC(C)C1(CC)C(=O)N=C([S-])NC1=O.O.O.[Cu+2] (stereo not shown) [Cu(II)(S--thiopental)2 (H2 O)2] | I | I | I | I | I | I | I | I | –
Cu(II) Salicylidene-L-histidinate | – | – | – | – | – | – | – | – | Anticonvulsant activity, Maximal Electroshock (Phase I) ([1]; Table IV, IP): I; Anticonvulsant activity, Maximal Electroshock (Phase I) ([1]; Table IV, SC): I; Anticonvulsant activity, Metrazol (Phase I) ([2]; IP): I
CCC1(CCC(C)C)C(=O)[N-]C(=O)NC1=O.CCC1(CCC(C)C)C(=O)[N-]C(=O)NC1=O.[Cu+2].c1c[nH]cn1.c1c[nH]cn1 [Cu(II)(Amobarbital)2 (imidazole)2] | 600 milligrams per kilogram of bod | I | I | I | 300 milligrams per kilogram of bod | I | I | 600 milligrams per kilogram of bod | –
Cu(II)n (Phenobarbital)n (pyridine)2n (H2 O)3n | – | – | – | – | – | – | 30 milligrams per kilogram of bod | 30 milligrams per kilogram of bod | –
CCC1(c2ccccc2)C(=O)[N-]C(=O)NC1=O.CCC1(c2ccccc2)C(=O)[N-]C(=O)NC1=O.CCC1(c2ccccc2)C(=O)[N-]C(=O)NC1=O.CCC1(c2ccccc2)C(=O)[N-]C(=O)NC1=O.O.O.O.O.O.O.O.O.O.O.O.[Cu+2].[Cu+2] [Cu(II)(Phenobarbital)2 (H2 O)5.5] | 30 milligrams per kilogram of bod | 30 milligrams per kilogram of bod | 30 milligrams per kilogram of bod | 30 milligrams per kilogram of bod | 5 milligrams per kilogram of bod | 5 milligrams per kilogram of bod | 30 milligrams per kilogram of bod | 30 milligrams per kilogram of bod | –
[Cu+2].[O-]c1ccccc1C=NCCN=Cc1ccccc1[O-] [Cu(II) bissalicylatoethyleneimine] | – | – | – | – | – | – | – | – | Anticonvulsant activity, Maximal Electroshock (Phase I) ([1]; Table IV, IP): I; Anticonvulsant activity, Maximal Electroshock (Phase I) ([1]; Table IV, SC): I; Anticonvulsant activity, Metrazol (Phase I) ([2]; SC): I
CCCC(C)C1(CC)C(=O)[N-]C(=S)NC1=O.CCCC(C)C1(CC)C(=O)[N-]C(=S)NC1=O.[Cu+2] (stereo not shown) [Cu(II)(N--thiopental)2 (H2 O)2.5] | I | I | I | I | I | I | I | 30 milligrams per kilogram of bod | –
C[C@@H](O)[C@H](N)C(=O)[O-].C[C@H](N)C(=O)[O-].[Cu+2] [Cu(II)(L-threoninate)(L-alaninate)] | – | – | – | – | – | – | – | – | Protection against Metrazol-induced seizures (in words) [2]: effective against the Metrazol-induced seizure at all doses studied and at both time intervals, 30 minutes and 4 hours
CC(=O)Oc1ccccc1C(=O)O [Aspirin, acetylsalicylate, reference compound] | – | – | – | – | – | – | – | – | Anticonvulsant activity, Maximal Electroshock ([1]; Table VI, IP): I; Anticonvulsant activity, Metrazol ([2]; Table VI, IP): I
CC(=O)Oc1ccccc1C(=O)[O-].CC(=O)Oc1ccccc1C(=O)[O-].CS(C)=O.CS(C)=O.[Cu+2] [Cu(II)(acetylsalicylate)2 (dimethylsulfoxide)2] | – | – | – | – | – | – | – | – | Anticonvulsant activity, Maximal Electroshock (Phase I) ([1]; Table I, SC): I
N[C@@H](Cc1ccccc1)C(=O)[O-].N[C@@H](Cc1ccccc1)C(=O)[O-].[Cu+2] [Cu(II)(L-phenylalaninate)2] | – | – | – | – | – | – | – | – | Protection against Metrazol-induced seizures (in words) [2]: effective against the Metrazol-inducedseizure at all three doses studied but only at the shorter time period
CC(=O)Oc1ccccc1C(=O)[O-].CC(=O)Oc1ccccc1C(=O)[O-].[Cu+2].c1ccncc1.c1ccncc1 [Cu(II)(acetylsalicylate)2 (pyridine)2] | – | – | – | – | – | – | – | – | Anticonvulsant activity, Maximal Electroshock (Phase I) ([1]; Table I, SC): I
C[C@@H](O)[C@H](N)C(=O)[O-].N[C@@H](CO)C(=O)[O-].[Cu+2] [Cu(II)(L-threoninate)(L-serinate)] | – | – | – | – | – | – | – | – | Protection against Metrazol-induced seizures (in words) [2]: effective against the Metrazol-induced seizure at all doses studied and at both time intervals, 30 minutes and 4 hours
O=C([O-])c1cc(Cl)ccc1O.O=C([O-])c1cc(Cl)ccc1O.[Cu+2] [Cu(II)(5-chlorosalicylate)2] | – | – | – | – | – | – | – | – | Anticonvulsant activity, Maximal Electroshock (Phase I) ([1]; Table II, IP): I
CCC1(CCC(C)C)C(=O)[N-]C(=O)NC1=O.CCC1(CCC(C)C)C(=O)[N-]C(=O)NC1=O.[Cu+2].c1ccncc1.c1ccncc1 [Cu(II)(Amobarbital)2 (pyridine)2] | 300 milligrams per kilogram of bod | 300 milligrams per kilogram of bod | I | 100 milligrams per kilogram of bod | 100 milligrams per kilogram of bod | 30 milligrams per kilogram of bod | 600 milligrams per kilogram of bod | 600 milligrams per kilogram of bod | –
CCC1(c2ccccc2)NC(=O)NC1=O.CO.[OH][Cu][Cl] (stereo not shown) [Cu(II)5-ethyl-5-phenylhydantoin(HO)(Cl)(CH3 OH)] | 30 milligrams per kilogram of bod | I | – | – | 30 milligrams per kilogram of bod | I | – | – | –
Cu(II)5-ethyl-5-phenylhydantoin(H2 O)2.5 | 100 milligrams per kilogram of bod | 100 milligrams per kilogram of bod | 100 milligrams per kilogram of bod | 30 milligrams per kilogram of bod | 300 milligrams per kilogram of bod | 100 milligrams per kilogram of bod | 30 milligrams per kilogram of bod | 100 milligrams per kilogram of bod | –
